Counter-ions that a name gives are not always drawn.
Columns and labels:
Format in all cases: cell-based
[1] = system: Escherichia coli (ATCC 700926); test: MIC determination, microbroth dilution; settings: ATCC700926; Escherichia coli (ATCC 700926); read-out: MIC E.c.
[2] = system: Staphylococcus aureus (ATCC 29213); test: MIC determination, microbroth dilution; settings: ATCC29213; Staphylococcus aureus (ATCC 29213); read-out: MIC S.a.
[3] = system: acinetobacter baumannii (ATCC 19606); test: MIC determination, microbroth dilution; settings: ATCC19606
Listeria monocytogenes = test: MIC determination (Table 6)
[4] = system: Neisseria gonorrhoeae (ATCC 49226); test: Agar MIC determination (Alamar Blue); settings: ATCC49226, agar MIC, read-out: MIC N.g.
[5] = system: Enterococcus faecalis (ATCC 33186); test: MIC determination, microbroth dilution; settings: ATCC33186; Enterococcus faecalis (ATCC 33186); read-out: MIC E.f.
[6] = system: Neisseria meningitides (ATCC 13077); test: Disc diffusion assay; settings: ATCC13077, 4 μg per disc, read-out: Zone of inhibition N.m.
[7] = system: MRSA, Staphylococcus aureus (NRS70); test: MIC determination, microbroth dilution; settings: Staphylococcus aureus (NRS70); read-out: MIC MRSA

**Q.** For CN[C@@H]1[C@H](O)[C@H](NC)[C@H]2O[C@]3(O)[C@H](O[C@@H]2[C@H]1O)O[C@H](C)C[C@@]3(O)CNCc1ccc(F)cc1 [compound 2, 3′-(R)-3′-[(4-fluoro)benzylaminomethyl)]dihydrospectinomycin Trihydrochloride], which MIC [1] is on record?
**A.** 25 µg/mL

**Q.** What about the MIC [2] of the same compound?
**A.** 25 to 50 µg/mL

**Q.** And the MIC [3]?
**A.** > 200 µg/mL

**Q.** And the MIC (Listeria monocytogenes)?
**A.** 6.3 µg/mL

**Q.** And the MIC [4]?
**A.** 25 µg/mL

**Q.** What about the MIC [5] of the same compound?
**A.** 12.5 to 25 µg/mL

**Q.** And the zone of inhibition at 4 µg/disc [6]?
**A.** 19 to 20 mm

**Q.** What about the MIC [7] of the same compound?
**A.** 50 µg/mL

— patent US10266544B2, “Aryl substituted aminomethyl spectinomycin analogs as antibacterial agents” (ST. JUDE CHILDREN'S RESEARCH HOSPITAL, INC., priority 2013, dated 2019)
